Reference: ChEMBL document CHEMBL1134520, “Potent somatostatin undecapeptide agonists selective for somatostatin receptor 1 (sst1)” (J Med Chem, 2001)
Numbered stars: 1 amine (or outer) side, 2 acyl side, 3 side chain; on linkers, the order of the positions; unused ones are H or OH. Bridge positions count the residues as written; N and C are the ends. Square brackets hold non-standard residues; d marks the D form. Peptide text beside a SMILES is read from it. Phe(4-NO2) = N[C@@H](Cc1ccc([N+](=O)[O-])cc1)C(=O)O; Phe(4-CH2NHiPr) = CC(C)NCc1ccc(C[C@H](N)C(=O)O)cc1; X1 = CC(C)CNCc1ccc(C[C@H](N[*:1])C(=O)[*:2])cc1; d2Nal = N[C@H](Cc1ccc2ccccc2c1)C(=O)O

Experiments:
[1] = biological target: Somatostatin receptor type 1 (Homo sapiens, UniProt P30872); assay: Tested for ability to bind to 20 uM thick cryostat sections of a membrane pellet of cells transfected with human cloned somatostatin (sst) receptor subtype 1.
[2] = biological target: Somatostatin receptor type 2 (Homo sapiens, UniProt P30874); assay: Tested for ability to bind to 20 uM thick cryostat sections of a membrane pellet of cells transfected with human cloned somatostatin (sst) receptor subtype 2.
[3] = biological target: Somatostatin receptor type 5 (Homo sapiens, UniProt P35346); assay: Tested for ability to bind to 20 uM thick cryostat sections of a membrane pellet of cells transfected with human cloned somatostatin (sst) receptor subtype 5.
[4] = biological target: Somatostatin receptor type 3 (Homo sapiens, UniProt P32745); assay: Tested for ability to bind to 20 uM thick cryostat sections of a membrane pellet of cells transfected with human cloned somatostatin (sst) receptor subtype 3.
[5] = biological target: Somatostatin receptor type 4 (Homo sapiens, UniProt P31391); assay: Tested for ability to bind to 20 uM thick cryostat sections of a membrane pellet of cells transfected with human cloned somatostatin (sst) receptor subtype 4.
Somatostatin receptor type 4, sequence (P31391 whole entry): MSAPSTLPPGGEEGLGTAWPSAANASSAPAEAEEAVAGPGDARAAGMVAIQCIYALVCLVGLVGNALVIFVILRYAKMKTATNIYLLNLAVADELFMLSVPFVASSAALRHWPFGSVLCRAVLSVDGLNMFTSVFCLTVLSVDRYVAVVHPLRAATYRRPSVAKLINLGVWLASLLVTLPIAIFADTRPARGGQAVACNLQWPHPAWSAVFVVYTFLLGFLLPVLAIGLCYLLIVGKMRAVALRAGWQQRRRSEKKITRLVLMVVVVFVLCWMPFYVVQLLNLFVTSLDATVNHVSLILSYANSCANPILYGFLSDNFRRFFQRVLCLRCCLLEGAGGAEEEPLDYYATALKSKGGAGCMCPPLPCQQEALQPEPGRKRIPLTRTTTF

Somatostatin receptor type 5, sequence (P35346 whole entry): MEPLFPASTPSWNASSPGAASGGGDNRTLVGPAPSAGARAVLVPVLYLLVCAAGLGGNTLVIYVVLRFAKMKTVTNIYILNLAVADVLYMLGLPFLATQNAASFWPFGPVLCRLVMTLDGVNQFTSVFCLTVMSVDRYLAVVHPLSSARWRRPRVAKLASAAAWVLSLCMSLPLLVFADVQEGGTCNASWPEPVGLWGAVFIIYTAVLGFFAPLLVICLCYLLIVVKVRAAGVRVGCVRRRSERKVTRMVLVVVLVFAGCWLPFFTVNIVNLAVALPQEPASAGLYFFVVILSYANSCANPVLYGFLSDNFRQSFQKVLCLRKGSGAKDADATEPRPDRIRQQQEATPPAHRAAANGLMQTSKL
Somatostatin receptor type 2, sequence (P30874 whole entry): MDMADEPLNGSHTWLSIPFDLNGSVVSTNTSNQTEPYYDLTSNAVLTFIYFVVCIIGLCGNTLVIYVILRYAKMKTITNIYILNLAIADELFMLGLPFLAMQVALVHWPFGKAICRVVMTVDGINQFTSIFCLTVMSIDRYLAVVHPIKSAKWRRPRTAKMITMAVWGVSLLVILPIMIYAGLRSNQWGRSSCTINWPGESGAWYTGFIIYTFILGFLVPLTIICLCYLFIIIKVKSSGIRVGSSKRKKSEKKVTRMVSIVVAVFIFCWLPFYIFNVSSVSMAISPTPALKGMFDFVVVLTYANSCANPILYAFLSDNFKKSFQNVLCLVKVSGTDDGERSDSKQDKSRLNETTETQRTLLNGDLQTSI
Somatostatin receptor type 1, sequence (P30872 whole entry): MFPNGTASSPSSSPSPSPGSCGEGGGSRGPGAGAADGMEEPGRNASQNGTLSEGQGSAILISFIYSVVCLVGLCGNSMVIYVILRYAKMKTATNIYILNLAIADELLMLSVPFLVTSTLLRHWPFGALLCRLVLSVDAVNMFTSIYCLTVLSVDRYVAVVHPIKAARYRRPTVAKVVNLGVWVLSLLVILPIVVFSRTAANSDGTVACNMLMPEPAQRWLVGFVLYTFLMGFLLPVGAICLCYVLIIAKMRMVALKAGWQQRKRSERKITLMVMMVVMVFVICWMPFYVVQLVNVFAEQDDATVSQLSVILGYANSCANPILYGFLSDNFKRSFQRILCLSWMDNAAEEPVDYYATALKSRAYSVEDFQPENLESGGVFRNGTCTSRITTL
Somatostatin receptor type 3, sequence (P32745 whole entry): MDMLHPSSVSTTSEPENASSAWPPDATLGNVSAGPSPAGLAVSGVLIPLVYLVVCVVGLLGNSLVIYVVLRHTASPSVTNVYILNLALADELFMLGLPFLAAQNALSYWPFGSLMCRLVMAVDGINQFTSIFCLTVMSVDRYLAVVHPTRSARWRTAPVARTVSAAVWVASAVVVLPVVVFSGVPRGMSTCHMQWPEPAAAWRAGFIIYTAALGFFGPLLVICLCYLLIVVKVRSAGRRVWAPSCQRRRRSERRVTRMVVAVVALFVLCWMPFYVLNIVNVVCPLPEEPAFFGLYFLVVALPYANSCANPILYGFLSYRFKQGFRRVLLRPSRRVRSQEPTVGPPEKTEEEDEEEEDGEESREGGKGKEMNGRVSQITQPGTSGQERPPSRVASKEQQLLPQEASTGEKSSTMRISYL

| IC50 [1] [nM] | IC50 [2] [nM] | IC50 [3] [nM] | IC50 [4] [nM] | IC50 [5] [nM] | Compound |
| --- | --- | --- | --- | --- | --- |
| 130 | > 1000 | > 1000 | 381 | > 1000 | CC(C)CNCc1ccc(C[C@@H]2NC(=O)[C@@H](Cc3c[nH]c4ccccc34)NC(=O)[C@H](Cc3ccccc3)NC(=O)[C@H](Cc3ccccc3)NC(=O)[C@H](CCCCN)NC(=O)[C@@H](N)CSSC[C@@H](C(=O)O)NC(=O)[C@H](CO)NC(=O)[C@H]([C@@H](C)O)NC(=O)[C@H](Cc3ccccc3)NC(=O)[C@H]([C@@H](C)O)NC2=O)cc1 (H-CKFF[dW][X1]TFTSC-OH; disulfide 1-11) |
| 35 | > 1000 | > 1000 | 975 | > 1000 | CC(C)NCc1ccc(C[C@@H]2NC(=O)[C@@H](Cc3ccc4ccccc4c3)NC(=O)[C@H](Cc3ccc([N+](=O)[O-])cc3)NC(=O)[C@H](Cc3ccccc3)NC(=O)[C@H](CCCCN)NC(=O)[C@@H](N)CSSC[C@@H](C(=O)O)NC(=O)[C@H](CO)NC(=O)[C@H]([C@@H](C)O)NC(=O)[C@H](Cc3ccccc3)NC(=O)[C@H]([C@@H](C)O)NC2=O)cc1 (H-CKF[Phe(4-NO2)][d2Nal][Phe(4-CH2NHiPr)]TFTSC-OH; disulfide 1-11) |
| 443 | > 1000 | > 10000 | > 10000 | > 10000 | CC(C)NCc1ccc(C[C@@H]2NC(=O)[C@@H](Cc3c[nH]c4ccccc34)NC(=O)[C@H](Cc3ccccc3)NC(=O)[C@H](Cc3ccccc3)NC(=O)[C@H](CC(N)=O)NC(=O)[C@H](CCCCN)NC(=O)[C@@H](N)CSSC[C@@H](C(=O)O)NC(=O)[C@H](CO)NC(=O)[C@H]([C@@H](C)O)NC(=O)[C@H](Cc3ccccc3)NC(=O)[C@H]([C@@H](C)O)NC2=O)cc1 (H-CKNFF[dW][Phe(4-CH2NHiPr)]TFTSC-OH; disulfide 1-12) |
| 975 | > 10000 | > 10000 | > 1000 | > 1000 | CC(C)NCc1ccc(C[C@@H]2NC(=O)[C@@H](Cc3ccc4ccccc4c3)NC(=O)[C@H](Cc3ccccc3)NC(=O)[C@H](Cc3ccccc3)NC(=O)[C@H](CCCCN)NC(=O)[C@H](NC(=O)CCc3ccc(O)cc3)CSSC[C@@H](C(=O)O)NC(=O)[C@H](CO)NC(=O)[C@H]([C@@H](C)O)NC(=O)[C@H](Cc3ccccc3)NC(=O)[C@@H]([C@@H](C)O)NC2=O)cc1 (stereo in doubt; 31) |
